Measurements taken from PubChem BioAssay (NCI).
“And” between values parts separate entries of the source, which are not always exact repeats. Equal values may be shown once.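 Briefly, cells in 96-well plates were exposed to five compound concentrations for 48 h, and endpoints were estimated by linear interpolation. GI50 marks 50% less growth. TGI: concentration producing complete growth inhibition.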

Assays:
Experiment in all cases: NCI-60 cell line screen, 48 h
MCF7 breast = system: MCF7 breast
SK-OV-3 ovarian = system: SK-OV-3 ovarian
HCT-116 colon = system: HCT-116 colon
PC-3 prostate = system: PC-3 prostate
SF-295 CNS = system: SF-295 CNS
CAKI-1 renal = system: CAKI-1 renal
OVCAR-5 ovarian = system: OVCAR-5 ovarian
TK-10 renal = system: TK-10 renal
NCI-H522 lung = system: NCI-H522 lung
IGROV1 ovarian = system: IGROV1 ovarian
M14 melanoma = system: M14 melanoma
HOP-92 NSCLC = system: HOP-92 NSCLC
SK-MEL-5 melanoma = system: SK-MEL-5 melanoma
OVCAR-4 ovarian = system: OVCAR-4 ovarian
KM12 colon = system: KM12 colon
MDA-MB-231 breast = system: MDA-MB-231 breast
RPMI-8226 leukemia = system: RPMI-8226 leukemia
NCI/ADR-RES ovarian = system: NCI/ADR-RES ovarian
MDA-MB-435 = system: MDA-MB-435
DU-145 prostate = system: DU-145 prostate
HS 578T breast = system: HS 578T breast
SK-MEL-2 melanoma = system: SK-MEL-2 melanoma
UACC-257 melanoma = system: UACC-257 melanoma
NCI-H460 lung = system: NCI-H460 lung
786-0 renal = system: 786-0 renal
CCRF-CEM leukemia = system: CCRF-CEM leukemia
RXF 393 renal = system: RXF 393 renal
SW-620 colon = system: SW-620 colon
NCI-H226 lung = system: NCI-H226 lung
HT29 colon = system: HT29 colon
HCC-2998 colon = system: HCC-2998 colon
T-47D breast = system: T-47D breast
A498 renal = system: A498 renal
SF-268 CNS = system: SF-268 CNS
LOX IMVI melanoma = system: LOX IMVI melanoma
K-562 leukemia = system: K-562 leukemia
SR leukemia = system: SR leukemia
EKVX NSCLC = system: EKVX NSCLC
OVCAR-3 ovarian = system: OVCAR-3 ovarian
SF-539 CNS = system: SF-539 CNS
NCI-H23 lung = system: NCI-H23 lung
OVCAR-8 ovarian = system: OVCAR-8 ovarian
ACHN renal = system: ACHN renal
HCT-15 colon = system: HCT-15 colon
UO-31 renal = system: UO-31 renal
U251 CNS = system: U251 CNS
HL-60(TB) leukemia = system: HL-60(TB) leukemia
HOP-62 NSCLC = system: HOP-62 NSCLC
MOLT-4 leukemia = system: MOLT-4 leukemia
SK-MEL-28 melanoma = system: SK-MEL-28 melanoma
A549 NSCLC = system: A549 NSCLC
MALME-3M melanoma = system: MALME-3M melanoma
SNB-19 CNS = system: SNB-19 CNS
BT-549 breast = system: BT-549 breast
UACC-62 melanoma = system: UACC-62 melanoma
SN12C renal = system: SN12C renal
COLO 205 colon = system: COLO 205 colon

`O=C1/C(=C/C=C/c2ccccc2)N=C(c2ccccc2)N1C1Nc2cc3c(cc2S1)NC(N1C(=O)/C(=C/C=C/c2ccccc2)N=C1c1ccccc1)S3` (centres undefined) showed a TGI (MCF7 breast) of over 100 µM, a TGI (SK-OV-3 ovarian) of over 100 µM and a TGI (HCT-116 colon) of over 100 µM. It also gave a TGI (PC-3 prostate) of over 100 µM, a TGI (SF-295 CNS) of over 100 µM and a TGI (CAKI-1 renal) of over 100 µM. For the same molecule, the TGI (OVCAR-5 ovarian) was over 100 µM, the TGI (TK-10 renal) was over 100 µM and the TGI (NCI-H522 lung) was 28.8 µM. It also gave a TGI (IGROV1 ovarian) of over 100 µM, a TGI (M14 melanoma) of over 100 µM and a TGI (HOP-92 NSCLC) of 85.2 µM. The TGI (SK-MEL-5 melanoma) was over 100 µM, the TGI (OVCAR-4 ovarian) was over 100 µM and the TGI (KM12 colon) was over 100 µM. For the same molecule, the TGI (MDA-MB-231 breast) was over 100 µM, the TGI (RPMI-8226 leukemia) was 57 µM and the TGI (NCI/ADR-RES ovarian) was over 100 µM. The TGI (MDA-MB-435) was over 100 µM, the TGI (DU-145 prostate) was over 100 µM and the TGI (HS 578T breast) was over 100 µM. It also gave a TGI (SK-MEL-2 melanoma) of over 100 µM, a TGI (UACC-257 melanoma) of over 100 µM and a TGI (NCI-H460 lung) of over 100 µM. For the same molecule, the TGI (786-0 renal) was over 100 µM, the TGI (CCRF-CEM leukemia) was over 100 µM and the TGI (RXF 393 renal) was over 100 µM. For the same molecule, the TGI (SW-620 colon) was over 100 µM, the TGI (NCI-H226 lung) was over 100 µM and the TGI (HT29 colon) was over 100 µM. For the same molecule, the TGI (HCC-2998 colon) was 37.2 µM, the TGI (T-47D breast) was over 100 µM and the TGI (A498 renal) was over 100 µM. The TGI (SF-268 CNS) was over 100 µM, the TGI (LOX IMVI melanoma) was over 100 µM and the TGI (K-562 leukemia) was over 100 µM. It also gave a TGI (SR leukemia) of 27.8 µM, a TGI (EKVX NSCLC) of over 100 µM and a TGI (OVCAR-3 ovarian) of over 100 µM. It also gave a TGI (SF-539 CNS) of over 100 µM, a TGI (NCI-H23 lung) of over 100 µM and a TGI (OVCAR-8 ovarian) of over 100 µM. For the same molecule, the TGI (ACHN renal) was over 100 µM, the TGI (HCT-15 colon) was over 100 µM and the TGI (UO-31 renal) was over 100 µM. It also gave a TGI (U251 CNS) of over 100 µM, a TGI (HL-60(TB) leukemia) of over 100 µM and a TGI (HOP-62 NSCLC) of over 100 µM. For the same molecule, the TGI (MOLT-4 leukemia) was 0.302 µM and the TGI (SK-MEL-28 melanoma) was over 100 µM.

In the case of `O=c1cc(-c2cccc(C(F)(F)F)c2)[nH]c2cc3c(cc12)OCO3`, the GI50 (MCF7 breast) is reported as 0.95 µM, the TGI (MCF7 breast) is reported as 50 µM and > 100 µM and the GI50 (SK-OV-3 ovarian) is reported as 0.326 µM. For the same molecule, the TGI (SK-OV-3 ovarian) was 29.1 µM and 16.8 µM, the GI50 (HCT-116 colon) was 1.98 µM and 0.482 µM and the TGI (HCT-116 colon) was 19.1 µM and 29.4 µM. The TGI (PC-3 prostate) was over 100 µM, the TGI (CAKI-1 renal) was over 100 µM and the GI50 (OVCAR-5 ovarian) was over 100 µM. The TGI (OVCAR-5 ovarian) was 50 µM and > 100 µM, the GI50 (A549 NSCLC) was 0.521 µM and the TGI (A549 NSCLC) was 50 µM. The TGI (MALME-3M melanoma) was over 100 µM, the GI50 (TK-10 renal) was 22.5 µM and the TGI (TK-10 renal) was over 100 µM. The TGI (NCI-H522 lung) was over 100 µM, the TGI (IGROV1 ovarian) was 50 µM and the GI50 (SNB-19 CNS) was 0.427 µM. The TGI (SNB-19 CNS) was 50 µM and 7.58 µM, the GI50 (M14 melanoma) was 0.41 µM and the TGI (M14 melanoma) was 50 µM and > 100 µM. For the same molecule, the GI50 (BT-549 breast) was 0.359 µM, the TGI (BT-549 breast) was 50 µM and > 100 µM and the TGI (HOP-92 NSCLC) was 50 µM. The GI50 (SK-MEL-5 melanoma) was 1.27 µM, the TGI (SK-MEL-5 melanoma) was 4.41 µM and the GI50 (KM12 colon) was 0.486 µM. The TGI (KM12 colon) was 13 µM and > 100 µM, the TGI (MDA-MB-231 breast) was 30.1 µM and the TGI (RPMI-8226 leukemia) was over 100 µM. For the same molecule, the GI50 (NCI/ADR-RES ovarian) was 0.251 µM, the TGI (NCI/ADR-RES ovarian) was 2.14 µM and 0.829 µM and the GI50 (UACC-62 melanoma) was 0.356 µM. The GI50 (MDA-MB-435) was 0.175 µM, the TGI (MDA-MB-435) was 1.95 µM and 0.366 µM and the GI50 (SN12C renal) was 0.735 µM. The TGI (SN12C renal) was 50 µM and > 100 µM, the TGI (HS 578T breast) was 17.5 µM and the TGI (SK-MEL-2 melanoma) was 3.34 µM. For the same molecule, the GI50 (NCI-H460 lung) was 0.353 µM, the TGI (NCI-H460 lung) was 4.08 µM and 11 µM and the GI50 (786-0 renal) was 0.902 µM. For the same molecule, the TGI (786-0 renal) was 7.91 µM and 27 µM, the GI50 (SW-620 colon) was 0.326 µM and the TGI (SW-620 colon) was 50 µM and > 100 µM. The GI50 (HT29 colon) was 3.11 µM, the TGI (HT29 colon) was 40.8 µM and 13 µM and the GI50 (HCC-2998 colon) was 0.493 µM. It also gave a GI50 (T-47D breast) of over 100 µM, a TGI (T-47D breast) of over 100 µM and a GI50 (A498 renal) of 1.47 µM. The TGI (A498 renal) was 49.9 µM and 7 µM, the TGI (K-562 leukemia) was over 100 µM and the TGI (SR leukemia) was over 100 µM. For the same molecule, the TGI (EKVX NSCLC) was 50 µM, the GI50 (SF-539 CNS) was 0.483 µM and the TGI (SF-539 CNS) was 2.53 µM and 6.6 µM. The GI50 (NCI-H23 lung) was 0.276 µM, the GI50 (OVCAR-8 ovarian) was 0.482 µM and the TGI (OVCAR-8 ovarian) was 21.5 µM and 18.5 µM. The GI50 (ACHN renal) was 30.5 µM, the TGI (ACHN renal) was 50 µM and > 100 µM and the GI50 (HCT-15 colon) was 0.4 µM. The GI50 (UO-31 renal) was 0.315 µM, the GI50 (U251 CNS) was 0.145 µM and the TGI (HL-60(TB) leukemia) was 0.705 µM. The GI50 (HOP-62 NSCLC) was 0.517 µM, the TGI (HOP-62 NSCLC) was 16.8 µM and 22.5 µM and the GI50 (COLO 205 colon) was 5.1 µM. The TGI (COLO 205 colon) was 24 µM and > 100 µM, the GI50 (MOLT-4 leukemia) was 0.338 µM and the TGI (MOLT-4 leukemia) was 50 µM and > 100 µM. The GI50 (SK-MEL-28 melanoma) was 0.455 µM and the TGI (SK-MEL-28 melanoma) was 50 µM and 53.9 µM.
